Measured values: article PMC6582339 (2019)

Columns and labels:
[1] = test system: OBA3 (DNA, aptamer) CGGGGCGAAGCGGGTCCCG; assay: 1H NMR imino spectra; conditions: 10 mM MgCl2; 10 mM Na2HPO4/KH2PO4; pH 7.4, 2 equivalents of OTB
[2] = test system: OBAwt (DNA, aptamer) GGGGTGAAACGGGTCCCG; assay: 1H NMR imino titration; conditions: 10 mM Mg2+; 10 mM Na2HPO4/KH2PO4; pH 7.4, 288 K, 0.1 mM aptamer
[3] = test system: OBA2 (DNA, aptamer) GGGGCGAAGCGGGTCCCG; assay: 1H NMR imino spectra; conditions: 10 mM MgCl2; 10 mM Na2HPO4/KH2PO4; pH 7.4, 2 equivalents of OTB
[4] = test system: OBA1 (DNA, aptamer) CGGGGTGAAACGGGTCCCG; assay: 1H NMR imino spectra; conditions: 10 mM MgCl2; 10 mM Na2HPO4/KH2PO4; pH 7.4, 2 equivalents of OTB
[5] = test system: OBAwt (DNA, aptamer) GGGGTGAAACGGGTCCCG; assay: fluorescence polarization (OTA intrinsic fluorescence); conditions: 10 mM MgCl2; 10 mM Na2HPO4/KH2PO4; pH 7.4, room temperature, 500 nM OTA titrated with aptamer
[6] = test system: OBAwt-I11 (DNA, aptamer, inosine at 11) GGGGTGAAACGGGTCCCG; assay: inosine substitution (Figure S1); conditions: 10 mM MgCl2; 10 mM Na2HPO4/KH2PO4; pH 7.4
[7] = test system: OBAwt-I13 (DNA, aptamer, inosine at 13) GGGGTGAAACGGGTCCCG; assay: inosine substitution (Figure S1); conditions: 10 mM MgCl2; 10 mM Na2HPO4/KH2PO4; pH 7.4
[8] = test system: OBA2 (DNA, aptamer) GGGGCGAAGCGGGTCCCG; assay: fluorescence polarization (OTA intrinsic fluorescence); conditions: 10 mM MgCl2; 10 mM Na2HPO4/KH2PO4; pH 7.4, room temperature, 500 nM OTA titrated with aptamer
[9] = test system: OBAwt-I3 (DNA, aptamer, inosine at 3) GGGGTGAAACGGGTCCCG; assay: inosine substitution (Figure S1); conditions: 10 mM MgCl2; 10 mM Na2HPO4/KH2PO4; pH 7.4
[10] = test system: OBA3 (DNA, aptamer) CGGGGCGAAGCGGGTCCCG; assay: solution NMR structure; conditions: 10 mM MgCl2; 10 mM Na2HPO4/KH2PO4; pH 7.4, 288-310 K
[11] = test system: OBAwt-I4 (DNA, aptamer, inosine at 4) GGGGTGAAACGGGTCCCG; assay: inosine substitution (Figure S1); conditions: 10 mM MgCl2; 10 mM Na2HPO4/KH2PO4; pH 7.4
[12] = test system: OBAwt-I1 (DNA, aptamer, inosine at 1) GGGGTGAAACGGGTCCCG; assay: inosine substitution (Figure S1); conditions: 10 mM MgCl2; 10 mM Na2HPO4/KH2PO4; pH 7.4
[13] = test system: OBA6 (DNA, aptamer) GCGGGGCGAAGCGGGTCCCGC; assay: fluorescence polarization (OTA intrinsic fluorescence); conditions: 10 mM MgCl2; 10 mM Na2HPO4/KH2PO4; pH 7.4, room temperature, 500 nM OTA titrated with aptamer
[14] = test system: OBA4 (DNA, aptamer) GGGGTGAAACGGTCCCG; assay: not stated for this variant (Figure S2); conditions: 10 mM MgCl2; 10 mM Na2HPO4/KH2PO4; printed NB (no binding); pH 7.4
[15] = test system: OBAwt-I6 (DNA, aptamer, inosine at 6) GGGGTGAAACGGGTCCCG; assay: inosine substitution (Figure S1); conditions: 10 mM MgCl2; 10 mM Na2HPO4/KH2PO4; pH 7.4
[16] = test system: OBA3 (DNA, aptamer) CGGGGCGAAGCGGGTCCCG; assay: fluorescence polarization (OTA intrinsic fluorescence); conditions: 10 mM MgCl2; 10 mM Na2HPO4/KH2PO4; pH 7.4, room temperature, 500 nM OTA titrated with aptamer
[17] = test system: OBA5 (DNA, aptamer) CCGGGGCGAAGCGGGTCCCGG; assay: as above; conditions: 10 mM MgCl2; 10 mM Na2HPO4/KH2PO4; pH 7.4, room temperature, 500 nM OTA titrated with aptamer
[18] = test system: OBAwt-I2 (DNA, aptamer, inosine at 2) GGGGTGAAACGGGTCCCG; assay: inosine substitution (Figure S1); conditions: 10 mM MgCl2; 10 mM Na2HPO4/KH2PO4; pH 7.4
[19] = test system: OBAwt-I12 (DNA, aptamer, inosine at 12) GGGGTGAAACGGGTCCCG; assay: inosine substitution (Figure S1); conditions: 10 mM MgCl2; 10 mM Na2HPO4/KH2PO4; pH 7.4
[20] = test system: OBA1 (DNA, aptamer) CGGGGTGAAACGGGTCCCG; assay: fluorescence polarization (OTA intrinsic fluorescence); conditions: 10 mM MgCl2; 10 mM Na2HPO4/KH2PO4; pH 7.4, room temperature, 500 nM OTA titrated with aptamer

| SMILES | binding [1] | binding [2] | binding [3] | binding [4] | K d [5] [µM] | binding [6] | binding [7] | K d [8] [µM] | binding [9] | binding [10] | binding [11] | binding [12] | K d [13] [µM] | binding [14] | binding [15] | K d [16] [µM] | K d [17] [µM] | binding [18] | binding [19] | K d [20] [µM] |
| --- | --- | --- | --- | --- | --- | --- | --- | --- | --- | --- | --- | --- | --- | --- | --- | --- | --- | --- | --- | --- |
| C[C@@H]1Cc2ccc(C(=O)N[C@@H](Cc3ccccc3)C(=O)O)c(O)c2C(=O)O1 | weak | no | weak | weak | – | – | – | – | – | – | – | – | – | – | – | – | – | – | – | – |
| C[C@@H]1Cc2c(Cl)cc(C(=O)N[C@@H](Cc3ccccc3)C(=O)O)c(O)c2C(=O)O1 | – | – | – | – | 81 ± 2 | no | no | 26.2 ± 0.4 | no | yes | no | no | 2.4 ± 0.1 | no | no | 1.4 ± 0.1 | 1.9 ± 0.1 | no | yes | 5.9 ± 0.1 |
